# Measurements: ChEMBL document CHEMBL4507299, “Data for DCP probe PF-04554878” (2021)
# Assays:
# [1] = test system: Tyrosine-protein kinase ABL1 (Homo sapiens), P00519 [T315I]
# [2] = target: Tyrosine-protein kinase ABL1 (Homo sapiens, UniProt P00519)
# [3] = target: Activin receptor type-1 (Homo sapiens) (UniProt Q04771)
# [4] = target: Calcium/calmodulin-dependent protein kinase kinase 1 (Homo sapiens) (UniProt Q8N5S9)
# [5] = target: Dual specificity protein kinase CLK2 (Homo sapiens) (UniProt P49760)
# [6] = target: Dual specificity protein kinase CLK4 (Homo sapiens) (UniProt Q9HAZ1)
# [7] = target: Serine/threonine-protein kinase DCLK3 (Homo sapiens) (UniProt Q9C098)
# [8] = test system: Epidermal growth factor receptor (Homo sapiens), P00533 [UNDEFINED MUTATION]
# [9] = target: Ephrin type-B receptor 6 (Homo sapiens) (UniProt O15197)
# [10] = target: Mitogen-activated protein kinase 3 (Homo sapiens) (UniProt P27361)
# Sequence of Mitogen-activated protein kinase 3 (Homo sapiens) (P27361 whole entry): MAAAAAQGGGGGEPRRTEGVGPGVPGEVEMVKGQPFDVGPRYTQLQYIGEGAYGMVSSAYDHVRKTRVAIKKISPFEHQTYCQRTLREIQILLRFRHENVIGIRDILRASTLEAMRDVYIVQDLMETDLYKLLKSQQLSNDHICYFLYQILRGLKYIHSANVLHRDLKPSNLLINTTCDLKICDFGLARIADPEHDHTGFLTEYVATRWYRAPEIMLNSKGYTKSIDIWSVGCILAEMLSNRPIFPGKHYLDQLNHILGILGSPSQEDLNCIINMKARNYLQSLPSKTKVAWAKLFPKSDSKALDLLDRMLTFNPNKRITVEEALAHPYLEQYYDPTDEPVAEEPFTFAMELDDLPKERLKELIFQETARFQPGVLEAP
# [11] = target: Tyrosine-protein kinase Fer (Homo sapiens) (UniProt P16591)
# Sequence of Tyrosine-protein kinase Fer (Homo sapiens) (P16591 whole entry, looked up): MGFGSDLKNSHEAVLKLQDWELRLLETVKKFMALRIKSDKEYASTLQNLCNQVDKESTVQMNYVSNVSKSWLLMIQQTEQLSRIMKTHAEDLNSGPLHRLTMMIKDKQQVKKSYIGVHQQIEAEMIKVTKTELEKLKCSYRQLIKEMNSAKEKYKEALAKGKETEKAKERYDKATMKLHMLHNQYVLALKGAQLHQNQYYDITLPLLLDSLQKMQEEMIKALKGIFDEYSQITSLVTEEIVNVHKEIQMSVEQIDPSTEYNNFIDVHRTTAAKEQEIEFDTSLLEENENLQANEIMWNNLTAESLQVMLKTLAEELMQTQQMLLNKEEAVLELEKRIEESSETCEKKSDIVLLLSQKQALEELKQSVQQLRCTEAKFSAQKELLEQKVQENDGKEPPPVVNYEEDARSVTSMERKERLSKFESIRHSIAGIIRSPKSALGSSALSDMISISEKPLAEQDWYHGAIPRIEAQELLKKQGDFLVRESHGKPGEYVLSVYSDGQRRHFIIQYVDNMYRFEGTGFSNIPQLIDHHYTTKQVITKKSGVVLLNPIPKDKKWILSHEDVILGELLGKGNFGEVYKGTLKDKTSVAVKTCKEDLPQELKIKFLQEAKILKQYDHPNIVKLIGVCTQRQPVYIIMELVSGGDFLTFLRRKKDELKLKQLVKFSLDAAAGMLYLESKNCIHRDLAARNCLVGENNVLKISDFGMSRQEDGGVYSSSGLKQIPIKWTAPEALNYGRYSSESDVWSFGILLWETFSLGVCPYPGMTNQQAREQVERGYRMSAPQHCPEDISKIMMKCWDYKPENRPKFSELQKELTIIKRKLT
# [12] = test system: Receptor-type tyrosine-protein kinase FLT3 (Homo sapiens), P36888 [N841I]
# [13] = target: G protein-coupled receptor kinase 3 (Homo sapiens) (UniProt P35626)
# [14] = target: Mitogen-activated protein kinase kinase kinase kinase 1 (Homo sapiens) (UniProt Q92918)
# Sequence of Mitogen-activated protein kinase kinase kinase kinase 1 (Homo sapiens) (Q92918 whole entry, looked up): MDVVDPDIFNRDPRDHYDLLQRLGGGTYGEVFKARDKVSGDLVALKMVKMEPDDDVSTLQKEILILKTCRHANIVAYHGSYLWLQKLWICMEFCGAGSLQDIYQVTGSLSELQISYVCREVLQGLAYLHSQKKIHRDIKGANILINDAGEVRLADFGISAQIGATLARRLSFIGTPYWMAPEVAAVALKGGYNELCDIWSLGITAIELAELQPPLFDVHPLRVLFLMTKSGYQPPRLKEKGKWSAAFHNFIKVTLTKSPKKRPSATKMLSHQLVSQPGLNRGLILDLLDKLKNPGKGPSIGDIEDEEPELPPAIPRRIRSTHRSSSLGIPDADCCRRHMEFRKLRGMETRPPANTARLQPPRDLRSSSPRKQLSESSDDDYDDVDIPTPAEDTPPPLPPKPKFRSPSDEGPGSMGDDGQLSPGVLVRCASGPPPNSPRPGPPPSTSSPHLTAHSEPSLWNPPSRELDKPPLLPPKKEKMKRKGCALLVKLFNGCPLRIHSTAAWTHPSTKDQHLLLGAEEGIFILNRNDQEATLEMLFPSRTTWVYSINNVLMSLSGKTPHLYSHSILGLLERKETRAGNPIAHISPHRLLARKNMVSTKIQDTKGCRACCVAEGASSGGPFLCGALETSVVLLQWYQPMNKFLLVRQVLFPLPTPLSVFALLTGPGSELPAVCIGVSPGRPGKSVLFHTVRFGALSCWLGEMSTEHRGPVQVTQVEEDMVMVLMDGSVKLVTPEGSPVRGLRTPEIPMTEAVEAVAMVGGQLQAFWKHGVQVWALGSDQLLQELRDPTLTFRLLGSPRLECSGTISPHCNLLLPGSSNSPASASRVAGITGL
# [15] = target: Interleukin-1 receptor-associated kinase 4 (Homo sapiens) (UniProt Q9NWZ3)
# Sequence of Interleukin-1 receptor-associated kinase 4 (Homo sapiens) (Q9NWZ3 whole entry): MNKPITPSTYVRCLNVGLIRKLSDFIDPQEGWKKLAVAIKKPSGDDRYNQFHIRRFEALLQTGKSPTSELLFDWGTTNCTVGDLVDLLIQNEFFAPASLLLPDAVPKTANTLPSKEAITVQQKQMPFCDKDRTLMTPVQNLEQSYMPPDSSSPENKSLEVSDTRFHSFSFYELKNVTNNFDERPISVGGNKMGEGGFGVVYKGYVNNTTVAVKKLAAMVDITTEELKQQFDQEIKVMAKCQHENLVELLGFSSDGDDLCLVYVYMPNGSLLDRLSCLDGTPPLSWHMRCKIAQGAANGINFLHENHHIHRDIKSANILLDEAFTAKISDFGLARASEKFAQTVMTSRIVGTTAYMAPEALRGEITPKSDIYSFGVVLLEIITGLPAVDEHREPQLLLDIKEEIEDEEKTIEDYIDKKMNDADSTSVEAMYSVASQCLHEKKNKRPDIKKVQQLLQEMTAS
# [16] = target: Mast/stem cell growth factor receptor Kit (Homo sapiens) (UniProt P10721)
# [17] = target: Mitogen-activated protein kinase kinase kinase 1 (Homo sapiens) (UniProt Q13233)
# [18] = target: Mitogen-activated protein kinase kinase kinase kinase 5 (Homo sapiens) (UniProt Q9Y4K4)
# [19] = test system: Hepatocyte growth factor receptor (Homo sapiens), P08581 [M1250T]
# [20] = target: T1, Serine/threonine-protein kinase 3 (Homo sapiens) (UniProt Q13188)
# T1 sequence (whole entry): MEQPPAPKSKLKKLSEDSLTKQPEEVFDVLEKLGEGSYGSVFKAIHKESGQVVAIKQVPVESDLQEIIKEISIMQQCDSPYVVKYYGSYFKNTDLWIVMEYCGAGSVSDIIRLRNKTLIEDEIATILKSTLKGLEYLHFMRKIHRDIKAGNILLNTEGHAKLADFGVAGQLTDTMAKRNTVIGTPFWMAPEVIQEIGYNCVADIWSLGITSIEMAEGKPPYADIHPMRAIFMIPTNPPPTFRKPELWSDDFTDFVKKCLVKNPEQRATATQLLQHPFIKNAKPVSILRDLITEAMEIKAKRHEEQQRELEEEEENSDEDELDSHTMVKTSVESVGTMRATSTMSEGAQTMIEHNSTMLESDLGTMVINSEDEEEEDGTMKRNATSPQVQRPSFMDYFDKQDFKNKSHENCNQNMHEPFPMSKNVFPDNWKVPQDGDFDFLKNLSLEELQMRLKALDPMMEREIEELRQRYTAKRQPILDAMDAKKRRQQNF
# [21] = target: Serine/threonine-protein kinase Nek10 (Homo sapiens) (UniProt Q6ZWH5)
# [22] = target: Serine/threonine-protein kinase Nek6 (Homo sapiens) (UniProt Q9HC98)
# [23] = target: Mitogen-activated protein kinase 12 (Homo sapiens) (UniProt P53778)
# [24] = target: Phosphorylase b kinase regulatory subunit alpha, liver isoform (Homo sapiens) (UniProt P46019)
# [25] = target: Phosphatidylinositol 3-kinase C2 domain-containing subunit gamma (Homo sapiens) (UniProt O75747)
# [26] = test system: Phosphatidylinositol 4,5-bisphosphate 3-kinase catalytic subunit alpha isoform (Homo sapiens), P42336 [E542K]
# Sequence of Phosphatidylinositol 4,5-bisphosphate 3-kinase catalytic subunit alpha isoform (Homo sapiens), P42336 [E542K] (P42336 whole entry E542K, canonical isoform): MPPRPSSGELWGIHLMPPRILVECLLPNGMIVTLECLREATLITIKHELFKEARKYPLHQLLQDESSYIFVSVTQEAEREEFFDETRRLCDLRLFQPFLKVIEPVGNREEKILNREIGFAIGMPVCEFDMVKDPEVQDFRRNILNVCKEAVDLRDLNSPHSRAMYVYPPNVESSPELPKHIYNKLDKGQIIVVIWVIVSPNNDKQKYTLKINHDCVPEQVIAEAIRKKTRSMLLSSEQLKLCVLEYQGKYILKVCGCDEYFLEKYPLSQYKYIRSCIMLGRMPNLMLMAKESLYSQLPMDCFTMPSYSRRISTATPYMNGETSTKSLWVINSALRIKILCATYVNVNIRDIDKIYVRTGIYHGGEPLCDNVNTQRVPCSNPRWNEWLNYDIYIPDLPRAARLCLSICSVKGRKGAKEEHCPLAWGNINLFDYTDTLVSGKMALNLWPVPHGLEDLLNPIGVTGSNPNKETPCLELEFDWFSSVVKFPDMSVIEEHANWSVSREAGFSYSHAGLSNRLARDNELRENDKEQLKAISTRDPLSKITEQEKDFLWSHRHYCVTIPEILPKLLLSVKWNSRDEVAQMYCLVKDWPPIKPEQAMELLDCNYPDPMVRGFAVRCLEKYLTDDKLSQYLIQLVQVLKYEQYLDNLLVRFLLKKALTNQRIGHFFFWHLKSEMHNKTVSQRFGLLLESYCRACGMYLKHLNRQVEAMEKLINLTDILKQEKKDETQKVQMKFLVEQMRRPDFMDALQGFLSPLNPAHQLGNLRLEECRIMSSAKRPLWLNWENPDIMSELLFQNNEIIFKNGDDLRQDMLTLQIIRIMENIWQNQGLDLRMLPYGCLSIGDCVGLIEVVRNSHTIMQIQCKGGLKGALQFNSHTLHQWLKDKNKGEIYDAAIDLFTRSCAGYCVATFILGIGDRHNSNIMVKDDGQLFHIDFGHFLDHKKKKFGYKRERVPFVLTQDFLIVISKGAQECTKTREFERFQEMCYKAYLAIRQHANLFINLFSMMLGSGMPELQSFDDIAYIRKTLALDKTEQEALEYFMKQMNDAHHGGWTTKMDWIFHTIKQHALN
# [27] = target: Phosphatidylinositol 5-phosphate 4-kinase type-2 gamma (Homo sapiens) (UniProt Q8TBX8)
# [28] = target: Serine/threonine-protein kinase SBK1 (Homo sapiens) (UniProt Q52WX2)
# [29] = target: SRSF protein kinase 2 (Homo sapiens) (UniProt P78362)
# [30] = target: Serine/threonine-protein kinase 33 (Homo sapiens) (UniProt Q9BYT3)
# [31] = target: Serine/threonine-protein kinase 36 (Homo sapiens) (UniProt Q9NRP7)
# Sequence of Serine/threonine-protein kinase 36 (Homo sapiens) (Q9NRP7 whole entry): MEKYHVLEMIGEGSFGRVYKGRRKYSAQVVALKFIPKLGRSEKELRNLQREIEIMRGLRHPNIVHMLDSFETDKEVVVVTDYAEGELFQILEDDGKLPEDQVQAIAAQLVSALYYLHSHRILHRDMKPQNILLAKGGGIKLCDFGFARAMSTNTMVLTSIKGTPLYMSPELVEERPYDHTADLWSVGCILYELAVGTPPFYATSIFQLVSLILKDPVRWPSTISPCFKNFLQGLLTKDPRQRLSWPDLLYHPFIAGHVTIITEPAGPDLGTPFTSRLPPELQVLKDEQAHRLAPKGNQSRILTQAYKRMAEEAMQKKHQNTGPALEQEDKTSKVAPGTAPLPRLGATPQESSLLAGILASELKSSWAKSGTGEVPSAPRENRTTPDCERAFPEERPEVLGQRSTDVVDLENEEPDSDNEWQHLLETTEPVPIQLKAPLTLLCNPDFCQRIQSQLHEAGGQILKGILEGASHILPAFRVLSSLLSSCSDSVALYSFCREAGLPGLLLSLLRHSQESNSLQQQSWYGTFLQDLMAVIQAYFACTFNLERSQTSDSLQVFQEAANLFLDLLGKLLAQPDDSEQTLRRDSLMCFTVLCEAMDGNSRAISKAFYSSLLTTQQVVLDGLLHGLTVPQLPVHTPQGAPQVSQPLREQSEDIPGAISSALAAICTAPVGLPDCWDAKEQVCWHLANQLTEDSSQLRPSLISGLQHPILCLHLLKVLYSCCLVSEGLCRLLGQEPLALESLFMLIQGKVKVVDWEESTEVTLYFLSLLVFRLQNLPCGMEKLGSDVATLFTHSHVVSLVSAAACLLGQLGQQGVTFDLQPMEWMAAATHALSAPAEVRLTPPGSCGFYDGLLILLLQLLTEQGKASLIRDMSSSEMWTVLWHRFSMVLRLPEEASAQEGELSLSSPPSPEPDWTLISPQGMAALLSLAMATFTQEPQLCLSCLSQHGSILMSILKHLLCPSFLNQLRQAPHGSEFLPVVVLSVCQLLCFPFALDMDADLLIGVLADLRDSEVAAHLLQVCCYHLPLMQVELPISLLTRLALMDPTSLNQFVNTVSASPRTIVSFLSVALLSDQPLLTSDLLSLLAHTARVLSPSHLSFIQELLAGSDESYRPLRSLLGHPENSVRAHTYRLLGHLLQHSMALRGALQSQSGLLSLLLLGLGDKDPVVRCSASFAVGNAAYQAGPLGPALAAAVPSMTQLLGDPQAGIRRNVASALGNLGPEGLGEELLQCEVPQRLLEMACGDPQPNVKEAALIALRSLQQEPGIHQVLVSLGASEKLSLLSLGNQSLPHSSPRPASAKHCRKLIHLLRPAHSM
# [32] = target: STE20/SPS1-related proline-alanine-rich protein kinase (Homo sapiens) (UniProt Q9UEW8)
# [33] = target: TGF-beta receptor type-1 (Homo sapiens) (UniProt P36897)
# [34] = target: Serine/threonine-protein kinase WNK1 (Homo sapiens) (UniProt Q9H4A3)
# [35] = target: Serine/threonine-protein kinase 32B (Homo sapiens) (UniProt Q9NY57)
# [36] = target: Serine/threonine-protein kinase 25 (Homo sapiens) (UniProt O00506)
# [37] = target: Mitogen-activated protein kinase kinase kinase 20 (Homo sapiens) (UniProt Q9NYL2)
# [38] = target: 5-hydroxytryptamine receptor 2B (Homo sapiens) (UniProt P41595); details: Compound concentration 10.0 uM
# [39] = Compound concentration 100.0 nM
# [40] = Compound concentration 1000.0 nM
compound,measurement,setting,value
CNC(=O)c1ccc(Nc2ncc(C(F)(F)F)c(NCc3nccnc3N(C)S(C)(=O)=O)n2)cc1 [DEFACTINIB],residual activity,[1]; [39],45%
same,residual activity,[2]; [39],100%
same,residual activity,[3]; [39],100%
same,residual activity,[4]; [39],75%
same,residual activity,[5]; [39],0%
same,residual activity,[6]; [39],25%
same,residual activity,[7]; [39],67%
same,residual activity,[8]; [39],97%
same,residual activity,[9]; [39],100%
same,residual activity,[10]; [39],86%
same,residual activity,[11]; [39],83%
same,residual activity,[12]; [39],0%
same,residual activity,[13]; [39],80%
same,residual activity,[14]; [39],18%
same,residual activity,[15]; [39],92%
same,residual activity,[16]; [39],84%
same,residual activity,[17]; [39],100%
same,residual activity,[18]; [39],100%
same,residual activity,[19]; [39],63%
same,residual activity,[20]; [39],68%
same,residual activity,[21]; [39],100%
same,residual activity,[22]; [39],81%
same,residual activity,[23]; [39],67%
same,residual activity,[24]; [39],75%
same,residual activity,[25]; [39],92%
same,residual activity,[26]; [39],49%
same,residual activity,[27]; [39],40%
same,residual activity,[28]; [39],67%
same,residual activity,[29]; [39],100%
same,residual activity,[30]; [39],68%
same,residual activity,[31]; [39],89%
same,residual activity,[32]; [39],100%
same,residual activity,[33]; [39],87%
same,residual activity,[34]; [39],100%
same,residual activity,[35]; [39],97%
same,residual activity,[36]; [39],85%
same,residual activity,[37]; [39],100%
same,inhibition,[38],5.73%
CN(c1ccnc(CNc2nc(Nc3ccc4c(c3)CC(=O)N4)ncc2C(F)(F)F)n1)S(C)(=O)=O [PF-00911705],residual activity,[1]; [40],11%
same,residual activity,[2]; [40],40%
same,residual activity,[3]; [40],91%
same,residual activity,[4]; [40],90%
same,residual activity,[5]; [40],0%
same,residual activity,[6]; [40],1.4%
same,residual activity,[7]; [40],43%
same,residual activity,[8]; [40],75%
same,residual activity,[9]; [40],54%
same,residual activity,[10]; [40],96%
same,residual activity,[11]; [40],78%
same,residual activity,[12]; [40],0%
same,residual activity,[13]; [40],91%
same,residual activity,[14]; [40],33%
same,residual activity,[15]; [40],50%
same,residual activity,[16]; [40],85%
same,residual activity,[17]; [40],49%
same,residual activity,[18]; [40],72%
same,residual activity,[19]; [40],6.8%
same,residual activity,[20]; [40],46%
same,residual activity,[21]; [40],90%
same,residual activity,[22]; [40],84%
same,residual activity,[23]; [40],58%
same,residual activity,[24]; [40],63%
same,residual activity,[25]; [40],77%
same,residual activity,[26]; [40],100%
same,residual activity,[27]; [40],42%
same,residual activity,[28]; [40],34%
same,residual activity,[29]; [40],40%
same,residual activity,[30]; [40],15%
same,residual activity,[31]; [40],87%
same,residual activity,[32]; [40],100%
same,residual activity,[33]; [40],44%
same,residual activity,[34]; [40],87%
same,residual activity,[35]; [40],100%
same,residual activity,[36]; [40],82%
same,residual activity,[37]; [40],100%
same,inhibition,[38],13.5%
